Values quoted from earlier work, collected in paper PMC8234620, “An Integrated Peptidomics and In Silico Approach to Identify Novel Anti-Diabetic Peptides in Parmigiano-Reggiano Cheese” (Biology, 2021).

System: angiotensin converting enzyme
Conditions: ref BIOPEP database and Milk Bioactive Peptides Database; cited from earlier work

With “DKIHP (UniProt P02666 62-66, looked up, fragment) [β-casein f(47–51)]” as the substance, how does the “Bioactivity: ACE-inhibition” value read?
The value was “ACE-inhibition”.

With “DKIHPF (UniProt P02666 62-67, looked up, fragment) [β-casein f(47–52)]” as the substance, how does the “Bioactivity: ACE-inhibition” value read?
The value was “ACE-inhibition”.

Which “Bioactivity: ACE-inhibition” value does the source give for DVPSERYLG [αS1-casein f(85–93)] here?
Its value is “ACE-inhibition”.

Which “Bioactivity: ACE-inhibition” value does the source give for “ENLLRF (UniProt P02662 33-38, looked up, fragment) [αS1-casein f(18–23)]” here?
The value was “ACE-inhibition”.

With “FFVAP (UniProt P02662 38-42, looked up, fragment) [αS1-casein f(23–27)]” as the substance, how does the “Bioactivity: ACE-inhibition” value read?
The value was “ACE-inhibition”.

Which “Bioactivity: ACE-inhibition” value does the source give for “FGK (UniProt P02662 47-49, looked up, fragment) [αS1-casein f(32–34)]” here?
The value was “ACE-inhibition”.

For “FVAP (UniProt P02662 39-42, looked up, fragment) [αS1-casein f(24–27)]”, which “Bioactivity: ACE-inhibition” value is on record?
Its value is “ACE-inhibition”.

Which “Bioactivity: ACE-inhibition” value does the source give for “GTQY (UniProt P02662 185-187, looked up, fragment) [αS1-casein f(170–172)]” here?
Its value is “ACE-inhibition”.

Which “Bioactivity: ACE-inhibition” value does the source give for “IVP (UniProt P02662 86-88, looked up, fragment) [αS1-casein f(71–73)]” here?
The value was “ACE-inhibition”.

For “LEE (UniProt P02666 18-20, looked up, fragment) [β-casein f(3–5)]”, which “Bioactivity: ACE-inhibition” value is on record?
Its value is “ACE-inhibition”.

Which “Bioactivity: ACE-inhibition” value does the source give for “LNF (UniProt P02663 176-178, looked up, fragment) [αS2-casein f(161–163)]” here?
The value was “ACE-inhibition”.

For “LVYPFP (UniProt P02666 73-78, looked up, fragment) [β-casein f(58–63)]”, which “Bioactivity: ACE-inhibition” value is on record?
Its value is “ACE-inhibition”.

Which “Bioactivity: ACE-inhibition” value does the source give for LVYPFPGP [β-casein f(58–65)] here?
The value was “ACE-inhibition”.

For “PFPE (UniProt P02662 42-45, looked up, fragment) [αS1-casein f(27–30)]”, which “Bioactivity: ACE-inhibition” value is on record?
Its value is “ACE-inhibition”.

For “PGPIP (UniProt P02666 78-82, looked up, fragment) [β-casein f(63–67)]”, which “Bioactivity: ACE-inhibition” value is on record?
The value was “ACE-inhibition”.

For “PLW (UniProt P02662 212-214, looked up, fragment) [αS1-casein f(197–199)]”, which “Bioactivity: ACE-inhibition” value is on record?
The value was “ACE-inhibition”.

With “QGP (UniProt P02663 116-118, looked up, fragment) [αS2-casein f(101–103)]” as the substance, how does the “Bioactivity: ACE-inhibition” value read?
The value was “ACE-inhibition”.

Which “Bioactivity: ACE-inhibition” value does the source give for “SLPQ (UniProt P02666 84-87, looked up, fragment) [β-casein f(69–72)]” here?
Its value is “ACE-inhibition”.

For “TVY (UniProt P02663 197-199, looked up, fragment) [αS2-casein f(182–184)]”, which “Bioactivity: ACE-inhibition” value is on record?
Its value is “ACE-inhibition”.

With “VEP (UniProt P02666 131-133, looked up, fragment) [β-casein f(116–118)]” as the substance, how does the “Bioactivity: ACE-inhibition” value read?
Its value is “ACE-inhibition”.

For VLP, which “Bioactivity: ACE-inhibition” value is on record?
Its value is “ACE-inhibition”.

For “VVPP (UniProt P02666 98-101, looked up, fragment) [β-casein f(83–86)]”, which “Bioactivity: ACE-inhibition” value is on record?
Its value is “ACE-inhibition”.

Which “Bioactivity: ACE-inhibition” value does the source give for “YQEP (UniProt P02666 208-211, looked up, fragment) [β-casein f(193–196)]” here?
The value was “ACE-inhibition”.

System: not given
Design: method as in BIOPEP database and Milk Bioactive Peptides Database
Conditions: ref BIOPEP database and Milk Bioactive Peptides Database; cited from earlier work

For “GTQY (UniProt P02662 185-187, looked up, fragment) [αS1-casein f(170–172)]”, which “Bioactivity: Antioxidant” value is on record?
The value was “Antioxidant”.

For “PEL (UniProt P02662 162-164, looked up, fragment) [αS1-casein f(147–149)]”, which “Bioactivity: Antioxidant” value is on record?
Its value is “Antioxidant”.

Which “Bioactivity: Antioxidant” value does the source give for QGPIVLNPWDQVKR [αS2-casein f(101–114)] here?
Its value is “Antioxidant”.

With “RELEEL (UniProt P02666 16-21, looked up, fragment) [β-casein f(1–6)]” as the substance, how does the “Bioactivity: Antioxidant” value read?
The value was “Antioxidant”.

With “YLG (UniProt P02662 106-108, looked up, fragment) [αS1-casein f(91–93)]” as the substance, how does the “Bioactivity: Antioxidant” value read?
The value was “Antioxidant”.

With “YQL (UniProt P02662 169-171, looked up, fragment) [αS1-casein f(154–156)]” as the substance, how does the “Bioactivity: Antioxidant” value read?
The value was “Antioxidant”.
